Literature values as cited in patent publication US20120177733A1 (priority 2005, published 2012).

Columns and labels:
[1] = not given; remark: listed apart in the source

Row | solubility in water | absolute (oral) bioavailability [1] | absolute oral bioavailability, wide range [1] | Structure (SMILES)
1 | slightly soluble | 64-90% |  | CCOC(=O)C1=C(COCCN)NC(C)=C(C(=O)OC)C1c1ccccc1Cl (stereo not shown) [Amlodipine besylate, 3-ethyl-5-methyl-2(2-aminoethoxymethyl)-4-(2-chlrorophenyl)-1,4-dihydro-6-methyl-3,5-pyridinedicarboxylate benzenesulphonate]
2 |  | about 25% | 10-35% | CCCCC(=O)N(Cc1ccc(-c2ccccc2-c2nnn[nH]2)cc1)[C@H](C(=O)O)C(C)C [valsartan, (S)—N-valeryl-N-{[2′-(1H-tetrazole-5-yl)-biphenyl-4-yl]-methyl}-valine]
